Assays:
foxtail, giant [1] = test: Test A preemergence; format: in vivo, Setaria faberii; conditions: preemergence
How it was run: (§1)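 Injury readout: eye-scored versus untreated controls, 0 to 100. Exposure period: ~10 days, greenhouse. Application: soil-directed spray over sown seed (pre) or spray on seedlings 2–10 cm tall with one or two leaves (post), compound carried in non-phytotoxic solvent including surfactant.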

pigweed [2] = test: Test A preemergence; format: in vivo, Amaranthus retroflexus; conditions: preemergence
How it was run: as §1

crabgrass, large = test: Test A postemergence; format: in vivo, Digitaria sanguinalis
How it was run: as §1

corn = test: Test A postemergence; format: in vivo, Zea mays
How it was run: as §1

galium = test: Test C preemergence; format: in vivo, Galium aparine; conditions: for Galium plant response rating: preemergence, scale 0 to 100 (0 no effect, 100 complete control), 13 to 15 days
How it was run: (§2)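 In this greenhouse assay, seeded soil (loam plus sand) or emerged seedlings in peat-vermiculite medium were treated with formulated compound. Roughly two weeks later (13–15 days), each species was scored visually relative to controls, from 0 for no effect to 100 for complete control.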

johnsongrass = test: Test C preemergence; format: in vivo, Sorghum halepense; conditions: for Johnsongrass plant response rating: preemergence
How it was run: as §2

pigweed [3] = test: Test C preemergence; format: in vivo, Amaranthus retroflexus; conditions: for Pigweed plant response rating: preemergence
How it was run: as §2

blackgrass = test: Test C postemergence; format: in vivo, Alopecurus myosuroides
How it was run: as §2

wheat = test: Test C postemergence; format: in vivo, Triticum aestivum
How it was run: as §2

foxtail, giant [4] = test: Test C postemergence; format: in vivo, Setaria faberii
How it was run: as §2

pigweed [5] = test: Test C postemergence; format: in vivo, Amaranthus retroflexus
How it was run: as §2

ragweed = test: Test C postemergence; format: in vivo, Ambrosia elation
How it was run: as §2

soybean = test: Test C postemergence; format: in vivo, Glycine max
How it was run: as §2

barnyardgrass = test: Test C postemergence; format: in vivo, Echinochloa crus-galli
How it was run: as §2

[6] = 125 g ai/ha, visual injury, 0 to 100 scale, approx. 10 days
[7] = 500 g ai/ha, visual injury after approx. 10 days, 0 to 100 scale (0 no effect, 100 complete control)
[8] = Postemergence, 500 g ai/ha, visual rating after approx. 10 days, 0 to 100 scale (0 no effect, 100 complete control)
[9] = postemergence, 125 g ai/ha, about 10 days, visual rating on 0 to 100 scale (0 no effect, 100 complete control)
[10] = 31 g ai/ha, visual rating, scale 0 to 100 (0 no effect, 100 complete control), 13 to 15 days
[11] = 62 g ai/ha, scale 0 to 100 (0 no effect, 100 complete control), 13 to 15 days
[12] = 125 g ai/ha, scale 0 to 100, 0 is no effect, 100 is complete control
[13] = Postemergence, 31 g ai/ha, visually evaluated after 13 to 15 days
[14] = postemergence, 62 g ai/ha, scale 0 to 100
[15] = postemergence, 250 g ai/ha, scale 0 to 100 (0 no effect, 100 complete control)
[16] = postemergence, 125 g ai/ha, scale 0 to 100, 0 no effect, 100 complete control

CCc1cc(-c2ccc(C(F)(F)F)cc2)nn1Cc1ccnc(C(F)(F)F)c1 [Compound 110]
Foxtail, Giant plant response rating (foxtail, giant [1]; [6]): 100
Foxtail, Giant plant response rating (foxtail, giant [1]; [7]): 100
Pigweed plant response rating (pigweed [2]; [6]): 100
Pigweed plant response rating (pigweed [2]; [7]): 100
Crabgrass, Large plant response rating (crabgrass, large; [8]): 100
Crabgrass, Large plant response rating (crabgrass, large; [9]): 70
Corn plant response rating (corn; [8]): 90
Corn plant response rating (corn; [9]): 80
Plant response rating (scale of 0 to 100), Galium (galium; Preemergence, 250 g ai/ha): 100
Galium plant response rating (galium; 31 g ai/ha, visual rating): 50
Galium plant response rating (galium; 62 g ai/ha): 90
Plant response rating (scale of 0 to 100), Johnsongrass (johnsongrass; Preemergence, 250 g ai/ha): 95
Johnsongrass plant response rating (johnsongrass; [10]): 15
Johnsongrass plant response rating (johnsongrass; [11]): 30
Johnsongrass plant response rating (johnsongrass; [12]): 80
Plant response rating (scale of 0 to 100), Pigweed (pigweed [3]; Preemergence, 250 g ai/ha): 100
Pigweed plant response rating (pigweed [3]; [10]): 95
Pigweed plant response rating (pigweed [3]; [11]): 100
Pigweed plant response rating (pigweed [3]; [12]): 100
Plant response rating (scale of 0 to 100 where 0 is no effect and 100 is complete control), Blackgrass (blackgrass; [13]): 30
Blackgrass plant response rating (blackgrass; [14]): 35
Plant response rating, Blackgrass (blackgrass; [15]): 60
Plant response rating, Blackgrass (blackgrass; [16]): 45
Plant response rating (scale of 0 to 100 where 0 is no effect and 100 is complete control), Wheat (wheat; [13]): 5
Wheat plant response rating (wheat; [14]): 5
Plant response rating, Wheat (wheat; [15]): 5
Plant response rating, Wheat (wheat; [16]): 5
Plant response rating (scale of 0 to 100 where 0 is no effect and 100 is complete control), Foxtail, Giant (foxtail, giant [4]; [13]): 35
Foxtail, Giant plant response rating (foxtail, giant [4]; [14]): 40
Plant response rating, Foxtail, Giant (foxtail, giant [4]; [15]): 70
Plant response rating, Foxtail, Giant (foxtail, giant [4]; [16]): 60
Plant response rating (scale of 0 to 100 where 0 is no effect and 100 is complete control), Pigweed (pigweed [5]; [13]): 85
Pigweed plant response rating (pigweed [5]; [14]): 85
Plant response rating, Pigweed (pigweed [5]; [15]): 98
Plant response rating, Pigweed (pigweed [5]; [16]): 90
Plant response rating (scale of 0 to 100 where 0 is no effect and 100 is complete control), Ragweed (ragweed; [13]): 50
Ragweed plant response rating (ragweed; [14]): 80
Plant response rating, Ragweed (ragweed; [15]): 80
Plant response rating, Ragweed (ragweed; [16]): 80
Plant response rating (scale of 0 to 100 where 0 is no effect and 100 is complete control), Soybean (soybean; [13]): 35
Soybean plant response rating (soybean; [14]): 55
Plant response rating, Soybean (soybean; [15]): 85
Plant response rating, Soybean (soybean; [16]): 70
Plant response rating (scale of 0 to 100 where 0 is no effect and 100 is complete control), Barnyardgrass (barnyardgrass; [13]): 20
Barnyardgrass plant response rating (barnyardgrass; [14]): 35
Plant response rating, Barnyardgrass (barnyardgrass; [15]): 65
Plant response rating, Barnyardgrass (barnyardgrass; [16]): 55
